Data on 5 compounds can be found in patent publication US7112590B2, “Thrombin inhibitors” (LEK Pharmaceuticals d.d., priority 2000, dated 2006).

Type in all cases: biochemical
Assay [1] concerns normal pooled human plasma. Kind of assay: Prothrombin time (PT) coagulation assay. The settings on record: concentration of inhibitor that doubled the clotting time. As to the method:
(§1) The Anticoagulant effect of thrombin inhibitors was measured by thrombin time (TT), activated partial thromboplastin time (aPTT), and prothrombin time (PT) assays. Inhibitors were added to normal pooled human plasma over a range of concentrations and clotting was recorded in an automated coagulometer (Fibrintimer, Dade/Behring). The concentration of inhibitor that doubled the clotting time was determined for each assay.
An optimal amount of thromboplastin and calcium are added to plasma sample and the time of fibrin clot formation wass measured. PT is a rapid, sensitive screening test for coagulation disorders of the extrinsic pathway. It is well suited for the induction and monitoring of oral anticoagulant therapy, for diagnosing genetic or acquired deficiencies in coagulation factors and checking the synthesis performance of the liver in hepatic diseases. PT is prolonged due to extrinsic coagulation factors deficit or due to the presence of inhibitors.
Thromboplastin (Thromborel S, Dade/Behring): was dissolved in 4 mL of distilled water. Reagent was at 37° C. prior to use at least 30 minutes.
(§2) Normal pooled plasma: venous blood from 11 apparently healthy volunteers was collected (1 part 0.11 mol/L sodium citrate solution with 9 parts of blood) and centrifuged immediately at 2000×g for 30 minutes at 4° C. Plasma was removed, pooled and stored in aliquots at −70° C. until use.
(§3) Inhibitors: were dissolved in DMSO (10 mM stock solution) and diluted with distilled water to working solutions (the highest concentration 100 μM).
Inhibitor (10 μL working solution, concentrations from 5 μM to 100 μM) and pooled plasma (90 μL) were incubated at 37° C. for 5 minutes and then Thromborel S (200 μL) was added. Clot formation was measured with a coagulometer in duplicate.

Assay [2] relates to normal pooled human plasma. Kind of assay: Activated partial thromboplastin time (aPTT) coagulation assay. Particulars: concentration of inhibitor that doubled the clotting time. As to the method: as §1
2. Activated Partial Thromboplastin Time (aPTT)
Incubation of plasma with the optimal quantity of phospholipids and a surface activator leads to activation of factors of the intrinsic coagulation pathway. The addition of calcium ions triggers the coagulation process. The time of fibrin clot formation wass measured. aPTT was used as a screening test for coagulation disorders of the intrinsic coagulation pathway. It is prolonged due to intrinsic coagulation factors deficit or due to the presence of inhibitors.
Pathromtin SL (Dade/Behring): silicon dioxide particles, vegetable phospholipids, sodium chloride (2.4 g/L), Hepes (14.3 g/L, pH 7.6), sodium azide (<1 g/L). The reagent was used at room temperature (15–25° C.).
Calcium chloride solution: 0.025 mol/L, warmed to 37° C.
as §2, §3
Inhibitor (10 μL working solution, concentrations from 5 μM to 100 μM) and pooled plasma (90 μL) were incubated at 37° C. for 5 minutes. Pathromtin (100 μL) was added and the sample was incubated for another 2 minutes at 37° C. The addition of calcium chloride (100 μL) triggered the coagulation process and clot formation was detected with a coagulometer in duplicate.

For the next assay, the target named is T1, human thrombin (Homo sapiens, UniProt P00734).
T1 construct: Human thrombin (308 NIH; Sigma); purchased Sigma
Kind of assay: Determination of thrombin Ki (chromogenic substrate S-2238). Particulars: for Ki: human thrombin, substrate S-2238, pH 7.5, 25° C.; for Ki trypsin/ Ki thrombin: selectivity: ratio of Ki for trypsin to Ki for thrombin. As to the method: (§4) The enzyme inhibitory effect of the compounds can be identified by determination of inhibition constant Ki. It denotes the degree of dissociation of the enzyme-inhibitor complex. Low dissociation constant means high potency of inhibitor. Ki can be determined during reaction of the enzyme with a specific chromogenic substrate which under hydrolysis by the enzyme develops color. Reaction in time is recorded by spectrophotometry and Ki is calculated from kinetic parameters (Vmax, Km, reaction rate).
1. Determination of Thrombin Ki
The ability of a compound to act as an inhibitor of human thrombin catalytic activity was assessed by determination of Ki.
(§5) Buffer: HBSA, pH 7.5 (10 mM Hepes, 150 mM NaCl, 0.1% w/v bovine serum albumin)
Substrate (S-2238: H-D-Phe-Pip-Arg-pNA HCl, 25 mg; Chromogenix): dissolved in distilled water to 1 mM concentration.
Human thrombin (308 NIH; Sigma): dissolved in saline to give a stock solution of 20 NIH/mL.
Inhibitors: were dissolved in DMSO (10 mM stock solution) and diluted with distilled water to working solutions (the highest final concentration of DMSO was 3%).
A mixture of 50 μL of buffer, 50 μL of inhibitor in water (final concentrations from 10 to 100 μM) and 50 μL of thrombin (0.5 NIH U/mL f.c.) was incubated for 15 minutes at room temperature. The reaction was started with 50 μL of S-2238 (20 μM or 40 μM f.c.) and the absorbance of each sample at 405 nm (at 25° C.) was measured in triplicate every 10 seconds for a period of 15 minutes using a microtiter plate reader (Tecan Sunrise).
Thrombin activity was determined from the change in absorbance in the linear part of the velocity graph. Ki was calculated according to Cheng and Prussof (Biochem Pharmacol, 1973) where Ki is IC50/(1+S/Km). The Km for the substrate was determined under the test conditions with at least 6 substrate concentrations varying around Km and calculated with the non-linear regression programme Curve expert.
3. Selectivity to Thrombin
By the use of other serine protease like trypsin with the appropriate chromogenic substrate, selectivity of inhibitors with respect to thrombin was determined. Selectivity of an inhibitor is expressed as a ratio of Ki for trypsin to Ki for thrombin.

The next assay addresses T2, trypsin (UniProt P00760).
T2 construct: Trypsin (6000 E/mg prot; Sigma): dissolved in distilled water to give a stock solution of 300 E/mL
T2 sequence (P00760 1-246): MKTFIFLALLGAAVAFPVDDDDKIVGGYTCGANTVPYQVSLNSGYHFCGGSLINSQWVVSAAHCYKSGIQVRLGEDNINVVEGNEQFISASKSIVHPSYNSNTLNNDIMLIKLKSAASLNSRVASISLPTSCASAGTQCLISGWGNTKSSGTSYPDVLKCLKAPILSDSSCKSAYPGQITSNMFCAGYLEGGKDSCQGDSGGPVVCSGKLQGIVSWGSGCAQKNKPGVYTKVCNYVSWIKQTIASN
Briefly: Determination of trypsin Ki (chromogenic substrate S-2222). The settings on record: substrate S-2222, pH 7.5, 25° C. The method, then:
as §4
2. Determination of Trypsin Ki
The ability of a compound to act as an inhibitor of trypsin catalytic activity was assessed by determination of Ki.
as §5
Substrate (S-2222: N-benzoyl-Ile-Glu-Gly-Arg-pNA HCl, 25 mg; Chromogenix): dissolved in distilled water to 2 mM concentration. (Km is 21 μM)
Trypsin (6000 E/mg prot.; Sigma): dissolved in distilled water to give a stock solution of 300 E/mL.
Inhibitors: were dissolved in DMSO (10 mM stock solution) and diluted with distilled water to working solution (the highest final concentration of DMSO was 10%).
50 μL of buffer, 50 μL of test compound in water (final concentrations from 50 to 300 μM) and 50 μL of trypsin (3 mE/mL f.c.) were incubated for 15 minutes at room temperature. The reaction was started with 50 μL of S-2222 (50 μM or 100 μM f.c.) and the absorbance of each sample at 405 nm (at 25° C.) was measured in triplicates every 10 seconds for a period of 15 minutes using a microtiter plate reader (Tecan Sunrise).
Trypsin activity was determined from the change in absorbance in the linear part of velocity graph. Ki was calculated according to Cheng and Prussof (Biochem Pharmacol, 1973) where Ki is, IC50/(1+S/Km). The Km for the substrate was determined under test conditions with at least 6 substrate concentrations varying around Km and calculated with the non-linear regression program Curve expert.

Assay [3] has as its system normal pooled human plasma. Briefly: Thrombin time (TT) coagulation assay. Particulars: concentration of inhibitor that doubled the clotting time, bovine thrombin reagent. As to the method: as §1
In a plasma sample thrombin converts fibrinogen into fibrin and the clot is formed. The time for clot formation was measured. Thrombin time is prolonged due to disorders in fibrin polymerisation or due to the presence of thrombin inhibitors.
Thrombin (Test Thrombin Reagent, 1.5 IU/mL, Dade/Behring): lyophilized bovine thrombin was dissolved in 5 mL of HEPES (25 mmol/L, pH 7.4). The reagent was warmed to 37° C. prior to the assay.
as §2, §3
Inhibitors (10 μL working solution, concentrations from 2.5 μM to 100 μM) and pooled plasma (90 μL) were incubated at 37° C. for 5 minutes and then thrombin (200 μL) was added. Clot formation was measured in a coagulometer in duplicate.

The structures appear in SMILES notation.

The compound `O=C(O)CN[C@H](CC1CCCCC1)C(=O)N1CCC[C@H]1C(=O)NCC1CCc2n[nH]cc2C1` (stereo partly drawn) returned a PT in assay [1] of 55.3 µM. Further, the aPTT in assay [2] came to 28 µM. For the same compound, on human thrombin, the Ki was found to be 280 nM and the “Ki trypsin/ Ki thrombin” value was found to be 70.6. This compound displayed an inhibition constant (Ki) on trypsin of 19900 nM. This compound also returned a TT in assay [3] of 4.9 µM.
`Nc1nc2c(s1)CC(NC(=O)[C@@H]1CCCN1C(=O)[C@@H](CC1CCCCC1)NS(=O)(=O)Cc1ccccc1)CC2` (stereo partly drawn) [drawing 91] had a PT in assay [1] of 114 µM. The compound further yielded an aPTT in assay [2] of 59 µM. At human thrombin, the affinity, expressed as Ki, was 120 nM and the “Ki trypsin/ Ki thrombin” value is recorded as >569. Moreover, the Ki at trypsin is > 68300 nM. This compound also showed a TT in assay [3] of 15 µM.
With `O=C(NCC1CCc2n[nH]cc2C1)[C@@H]1CCCN1C(=O)[C@@H](CC1CCCCC1)NS(=O)(=O)Cc1ccccc1` (stereo partly drawn) [drawing 92], in assay [1], the PT was 78.3 µM. The same compound came in with an aPTT in assay [2] of 42.3 µM. Further, at human thrombin, the Ki is 140 nM and the “Ki trypsin/ Ki thrombin” value came out at 1267. This compound also had a Ki on trypsin of 177000 nM. The compound further came in with a TT in assay [3] of 11 µM.
In turn, `Nc1nc2c(s1)CC(CNC(=O)[C@@H]1CCCN1C(=O)[C@@H](CC1CCCCC1)NS(=O)(=O)Cc1ccccc1)CC2` (stereo partly drawn) [drawing 95] displayed a PT in assay [1] of 95.3 µM. This compound yielded an aPTT in assay [2] of 64 µM. Moreover, the Ki at human thrombin came to 370 nM; at trypsin, 39900 nM. In addition, the “Ki trypsin/ Ki thrombin” value at human thrombin was found to be 107.8. The TT in assay [3] was found to be 15.8 µM.
With `Nc1nc2c(s1)CC(NC(=O)[C@@H]1CCCN1C(=O)[C@@H](Cc1ccccc1)NS(=O)(=O)Cc1ccccc1)CC2` (stereo partly drawn) [drawing 96], the PT in assay [1] amounted to 578 µM. Further, in assay [2], the aPTT is 332 µM. Also, at human thrombin, the Ki turned out to be 620 nM and the “Ki trypsin/ Ki thrombin” value was >110. The inhibitory constant (Ki) at trypsin was > 68300 nM. In assay [3], this compound returned a TT of 84 µM.
